# Measured values from patent publication US12178846B2, “Methods of using gap junctions as therapeutic targets for the treatment of degenerative disorders of the retina” (The Research Foundation for The State University of New York, priority 2014, dated 2024).
# System: cells in the GCL of mouse retinas
# Assay: NMDA-induced excitotoxic cell death in the GCL of retina-eyecups
# Format: cell-based
# Method: All animal procedures were in compliance with the NIH Guide for the Care and Use of Laboratory Animals and approved by the Institutional Animal Care and Use Committees at SUNY College of Optometry. Experiments were performed on retinas of wild type (WT), connexin knockout (KO) mice (Cx36^−/−, Cx45^−/−, and Cx36^−/−/45^−/− dKO), and their heterozygous (Het) littermates. The methods used to impale and label neurons have been described previously (Hu et al., J Neurosci 23:[…] (2003); Völgyi et al., Journal of Comparative Neurology 512:664-687 (2009)). Briefly, flattened retina-eyecups were placed in a superfusion chamber, which was mounted on the stage of a BX51WI light microscope (Olympus) within a light-tight Faraday cage. […] The retina-eyecups were superfused with a modified, oxygenated Ames medium maintained at 35° C.
# Various methods were employed to produce cell death. (1) Single cell apoptosis: CytC was injected into individual RGCs or Müller cells for 15 minutes after which retinas were incubated for 4 hours in oxygenated Ames medium before fixation. After streptavidin histology, apoptotic cells were detected with an anti-active caspase 3 antibody or with Terminal deoxynucleotidyl transferase dUTP nick end labeling (TUNEL) staining. (2) Excitotoxicity: To assess the contribution of GJs to cell death within populations of RGCs and amacrine cells we conducted parallel experiments in which retinas were preincubated for 20 minutes in normal Ames medium or in one containing the GJ blockers meclofenamic acid (MFA; 50 μM) or 18-beta-glycyrrhetinic acid (18Beta-GA; 25 μM). Both control and drug-treated retinas were then exposed for 1 hour to NMDA (100-300 μM) to induce excitotoxicity followed by 4 hours in the control Ames solution. (3) Retinal ischemia: Transient in vivo retinal ischemia was induced by introducing into the anterior chamber a 33-gauge needle attached to a saline-filled reservoir (0.9% sodium chloride) that was raised above the animal so as to increase intraocular pressure (IOP) to a level […]. MFA (2 μl, 500 μM) was administered intravitreally either 30 minutes before or 3 and 24 hours following the ischemic insult. […]
# Apoptotic and necrotic cell death were assessed by cell counts following: (1) staining with Live/Death Viability Assay (calcein AM/ethidium homodimer (EthD) (Invitrogen); (2) TUNEL, or, (3) labeling for activated caspase 3. For population studies, dead cells were counted manually within 500×500 μm areas (5 areas per retina) from micrographs of whole-mounts using images acquired by confocal microscope. Nuclear cell counts were made per unit length (500 μm) of frozen retinal cross-sections labeled with propidium iodide (2 μg/ml).
smiles,measurement,setting,value
"CC1(C)[C@@H](O)CC[C@]2(C)[C@H]3C(=O)C=C4[C@@H]5C[C@@](C)(C(=O)O)CC[C@]5(C)CC[C@@]4(C)[C@]3(C)CC[C@@H]12 [18Beta-GA, 18-Beta-glycyrrhetinic acid]","cell viability, blocker alone","control experiments, 18Beta-GA or MFA alone without NMDA, p>0.1",did not affect cell viability
same,cell death in the GCL induced by excitotoxicity,"retinas preincubated in 18Beta-GA 25 μM or MFA 50 μM, then NMDA 100-300 μM 1 h, vs NMDA alone, p<0.001",significantly reduced
